Assay results from US11707462B2, “Checkpoint kinase 1 (CHK1) inhibitors and uses thereof” (Boundless Bio, Inc., priority 2021, dated 2023).

Experiments:
[1] = biological target: T1, Full-length human Chk1 protein (Homo sapiens, UniProt O14757); assay: Kinase HTRF biochemical assay (HTRF KinEASE), Chk1 enzyme activity; conditions: full-length human Chk1, ATP 1 mM, 60 minutes at room temperature
T1 construct: purchased Carna Biosciences, Inc. 02-117
T1 sequence (O14757 1-476): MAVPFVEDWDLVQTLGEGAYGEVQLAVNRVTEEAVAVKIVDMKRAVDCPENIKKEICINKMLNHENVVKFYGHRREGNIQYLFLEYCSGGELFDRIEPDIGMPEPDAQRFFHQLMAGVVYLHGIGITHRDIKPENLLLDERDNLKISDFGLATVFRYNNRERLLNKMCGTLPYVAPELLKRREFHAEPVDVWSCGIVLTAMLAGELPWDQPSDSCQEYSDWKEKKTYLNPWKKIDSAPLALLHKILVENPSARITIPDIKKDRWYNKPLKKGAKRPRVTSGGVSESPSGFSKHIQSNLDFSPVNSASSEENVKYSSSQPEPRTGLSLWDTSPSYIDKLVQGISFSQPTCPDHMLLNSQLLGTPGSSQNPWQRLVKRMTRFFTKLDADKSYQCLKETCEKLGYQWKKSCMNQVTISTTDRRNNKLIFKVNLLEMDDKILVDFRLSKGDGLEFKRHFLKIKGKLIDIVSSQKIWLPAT
Outline: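 Full-length human Chk1 (0.012 ng/μL) in buffer with 5 mM MgCl2 and 1 mM DTT, preincubated with compound 10 min at room temperature; reaction with 120 nM biotinylated STK substrate 1 and 1 mM ATP for 60 min at room temperature. HTRF detection via cryptate antibody/streptavidin-XL665; IC50 from 10-point duplicate curves.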

[2] = tested on: p-CHK1 (Ser345); assay: AlphaLISA SureFire Ultra p-CHK1 (Ser345) cellular assay in HT29 cells; format: cell-based; conditions: Homo sapiens, HT-29, 16 h at 37° C.
Outline: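 HT29 cells treated with compounds over a 10-point, 3-fold dilution series for 16 h at 37° C., then lysed; p-CHK1 (Ser345) in lysates measured by AlphaLISA SureFire Ultra (acceptor and donor steps 1 h each at room temperature). IC50 from dose-response curve fits.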

Structure (SMILES) | IC50 [1] [nM] | IC50 [2] [nM]
COc1cccc(O[C@H]2CC[C@H](N)CC2)c1-c1cc(Nc2cnc(C#N)cn2)n[nH]1 [Example 1-1, 5-((5-(2-(((lr,4r)-4-aminocyclohexyl)oxy)-6-methoxyphenyl)-1H-pyrazol-3-yl)amino)pyrazine-2-carbonitrile] | ≤ 10 | 50 to 100
COc1cccc(O[C@@H]2CC[C@H](N(C)C)C2)c1-c1cc(Nc2cnc(C#N)cn2)n[nH]1 [Example 1-49, 5-((5-(2-(((1R,3S)-3-(dimethylamino)cyclopentyl)oxy)-6-methoxyphenyl)-1H-pyrazol-3-yl)amino)pyrazine-2-carbonitrile] | ≤ 10 | ≤ 50
CN(C)[C@@H]1CC[C@@H](Oc2cccc(F)c2-c2cc(Nc3cnc(C#N)cn3)n[nH]2)C1 [Example 5-4, 5-((5-(2-(((1R,3R)-3-(dimethylamino)cyclopentyl)oxy)-6-fluorophenyl)-1H-pyrazol-3-yl)amino)pyrazine-2-carbonitrile] | 100 to 500 | > 1000
Cc1cccc(-c2cc(Nc3cnc(C#N)cn3)n[nH]2)c1O[C@@H]1CC[C@H](N)C1 [Example 3-12, 5-((5-(2-(((1R,3S)-3-aminocyclopentyl)oxy)-3-methylphenyl)-1H-pyrazol-3-yl)amino)pyrazine-2-carbonitrile] | > 1000 | > 1000
N#Cc1cnc(Nc2cc(-c3ccccc3O[C@H]3CC[C@@H](N)CC3)[nH]n2)cn1 [Example 1-50, 5-((5-(2-(((1s,4s)-4-aminocyclohexyl)oxy)phenyl)-1H-pyrazol-3-yl)amino)pyrazine-2-carbonitrile] | 100 to 500 | > 1000
N#Cc1cnc(Nc2cc(-c3ncccc3O[C@H]3C[C@H](N)C3)[nH]n2)cn1 [Example 1-55, 5-((5-(3-((1r,3r)-3-aminocyclobutoxy)pyridin-2-yl)-1H-pyrazol-3-yl)amino)pyrazine-2-carbonitrile] | 10 to 100 | 500 to 1000
[2H]C([2H])([2H])Oc1cccc(O[C@@H]2CC[C@H](N)C2)c1-c1cc(Nc2cnc(C#N)cn2)n[nH]1 [Example 3-15, 5-((5-(2-(((1R,3S)-3-aminocyclopentyl)oxy)-6-(methoxy-d3)phenyl)-1H-pyrazol-3-yl)amino)pyrazine-2-carbonitrile] | ≤ 10 | ≤ 50
CN[C@@H]1CC[C@@H](Oc2ccc(C)c(F)c2-c2cc(Nc3cnc(C#N)cn3)n[nH]2)C1 [Example 3-20, 5-((5-(2-fluoro-3-methyl-6-(((1R,3R)-3-(methylamino)cyclopentyl)oxy)phenyl)-1H-pyrazol-3-yl)amino)pyrazine-2-carbonitrile] | ≤ 10 | ≤ 50
N#Cc1cnc(Nc2cc(-c3c(O[C@@H]4CC[C@H](N)C4)ccc(Cl)c3F)[nH]n2)cn1 [Example 3-19, 5-((5-(6-(((1R,3S)-3-aminocyclopentyl)oxy)-3-chloro-2-fluorophenyl)-1H-pyrazol-3-yl)amino)pyrazine-2-carbonitrile] | 10 to 100 | > 1000
CN[C@H]1C[C@H](Oc2cccc(F)c2-c2cc(Nc3cnc(C#N)cn3)n[nH]2)C1 [Example 2-5, 5-((5-(2-fluoro-6-((1r,3r)-3-(methylamino)cyclobutoxy)phenyl)-1H-pyrazol-3-yl)amino)pyrazine-2-carbonitrile] | 10 to 100 | 100 to 500
N#Cc1cnc(Nc2cc(-c3c(F)cccc3O[C@@H]3CC[C@@H](N)C3)[nH]n2)cn1 [Example 1-44, 5-((5-(2-(((1R,3R)-3-aminocyclopentyl)oxy)-6-fluorophenyl)-1H-pyrazol-3-yl)amino)pyrazine-2-carbonitrile] | ≤ 10 | ≤ 50
COc1cccc(O[C@H]2CC[C@@H](N)C2)c1-c1cc(Nc2cnc(C#N)cn2)n[nH]1 [Example 2-2, 5-((5-(2-(((1S,3R)-3-aminocyclopentyl)oxy)-6-methoxyphenyl)-1H-pyrazol-3-yl)amino)pyrazine-2-carbonitrile] | 10 to 100 | 500 to 1000
CC(C)c1ccc(O[C@@H]2CC[C@H](N)C2)c(-c2cc(Nc3cnc(C#N)cn3)n[nH]2)n1 [Example 3-46, 5-((5-(3-(((1R,3S)-3-aminocyclopentyl)oxy)-6-isopropylpyridin-2-yl)-1H-pyrazol-3-yl)amino)pyrazine-2-carbonitrile] | ≤ 10 | 50 to 100
COc1cc(F)cc(O[C@H]2CC[C@H](N)CC2)c1-c1cc(Nc2cnc(C#N)cn2)n[nH]1 [Example 2-4, 5-((5-(2-(((lr,4r)-4-aminocyclohexyl)oxy)-4-fluoro-6-methoxyphenyl)-1 H-pyrazol-3-yl)amino)pyrazine-2-carbonitrile] | ≤ 10 | ≤ 50
N#Cc1cnc(Nc2cc(-c3c(F)cc(Cl)cc3O[C@@H]3CC[C@H](N)C3)[nH]n2)cn1 [Example 3-24, 5-((5-(2-(((1R,3S)-3-aminocyclopentyl)oxy)-4-chloro-6-fluorophenyl)-1H-pyrazol-3-yl)amino)pyrazine-2-carbonitrile] | 10 to 100 | 500 to 1000
COc1c(Cl)ccc(O[C@@H]2CC[C@H](N)C2)c1-c1cc(Nc2cnc(C#N)cn2)n[nH]1 [Example 4-2, 5-((5-(6-(((1R,3S)-3-aminocyclopentyl)oxy)-3-chloro-2-methoxyphenyl)-1H-pyrazol-3-yl)amino)pyrazine-2-carbonitrile] | 10 to 100 | 500 to 1000
Cc1ccc(O[C@@H]2CC[C@@H](N)C2)c(-c2cc(Nc3cnc(C#N)cn3)n[nH]2)c1F [Example 3-26, 5-((5-(6-(((1R,3R)-3-aminocyclopentyl)oxy)-2-fluoro-3-methylphenyl)-1H-pyrazol-3-yl)amino)pyrazine-2-carbonitrile] | ≤ 10 | ≤ 50
N#Cc1cnc(Nc2cc(-c3cccc(F)c3O[C@@H]3CC[C@H](N)C3)[nH]n2)cn1 [Example 3-13, 5-((5-(2-(((1R,3S)-3-aminocyclopentyl)oxy)-3-fluorophenyl)-1H-pyrazol-3-yl)amino)pyrazine-2-carbonitrile] | 100 to 500 | > 1000
COc1cccc(O[C@@H]2CC[C@@H](N(C)C)C2)c1-c1cc(Nc2cnc(C#N)cn2)n[nH]1 [Example 1-48, 5-((5-(2-(((1R,3R)-3-(dimethylamino)cyclopentyl)oxy)-6-methoxyphenyl)-1H-pyrazol-3-yl)amino)pyrazine-2-carbonitrile] | ≤ 10 | 50 to 100
N#Cc1cnc(Nc2cc(-c3c(O[C@@H]4CC[C@@H](N)C4)ccc(Cl)c3F)[nH]n2)cn1 [Example 3-29, 5-((5-(6-(((1R,3R)-3-aminocyclopentyl)oxy)-3-chloro-2-fluorophenyl)-1H-pyrazol-3-yl)amino)pyrazine-2-carbonitrile] | ≤ 10 | 100 to 500
N#Cc1cnc(Nc2cc(-c3ccccc3O[C@H]3C[C@H](N)C3)[nH]n2)cn1 [Example 1-9, 5-((5-(2-((1r,3r)-3-aminocyclobutoxy)phenyl)-1H-pyrazol-3-yl)amino)pyrazine-2-carbonitrile] | 10 to 100 | 100 to 500
CN[C@H]1C[C@H](Oc2cccc(OC)c2-c2cc(Nc3cnc(C#N)cn3)n[nH]2)C1 [Example 1-16, 5-((5-(2-methoxy-6-((1r,3r)-3-(methylamino)cyclobutoxy)phenyl)-1H-pyrazol-3-yl)amino)pyrazine-2-carbonitrile] | 10 to 100 | ≤ 50
